Here are results for one substance from patent US20120231069A1, “Targeted Nanocarrier Systems for Delivery of Actives Across Biological Membranes” (Access Pharmaceuticals, Inc., priority 2011, published 2012).

The test system of the assay is Diabetic Rats. Briefly: Blood glucose reduction in streptozotocin-diabetic rats after oral gavage. Format: in vivo. As to conditions: diabetic female Wistar rats, oral gavage 0.5 mL of 20 IU/mL insulin. How it is done:
Female Wistar rats (200 g) were housed at room temperature with 12 h light/dark cycle. All animals had ad libitum access to a standard chow diet and water except wherever indicated. The rats were allowed to acclimatize for a period of 7 days in the new environment before initiation of the experiment. After randomization into groups of 4, each rat was marked and followed individually throughout the study. All rats were fasted for 1 hour. Streptozotocin obtained from Sigma (98% HPLC) was administered by IV injection at a dose of 55-65 mg/kg in 0.1M citrate buffer (pH 4.5) followed by an additional 1 hour fast. Blood was collected daily from the tail and blood glucose levels were measured using an Accu-Chek® (Compact Plus-Roche) blood glucose monitor. When all animals in the group had achieved a blood glucose level of >250 mg/dl (5 days) the insulin metabolism phase was begun. All animals were fasted for 1 hour and a blood glucose measurement taken (T=0). Groups of rats were dosed by oral gavage with 0.5 mL of an aqueous preparation of insulin nanoparticles (containing 20 IU/mL of insulin) of example 9, or 0.5 mL of an aqueous solution of bovine insulin (20 IU/mL). The animals were then fasted for another hour and blood glucose levels were measured at 1, 4, 8 and 24 hours after dosing.

Take “plain insulin formulation: aqueous solution of bovine insulin (20 IU/mL), oral comparator”: the “increase in blood glucose level (compared to T=0)” value by setting is: (8 hours after dosing) 1%; (24 hours after dosing) 21%.
